Data published in article PMC10587436, “A bacterial quorum sensing signal is a potent inhibitor of de novo pyrimidine biosynthesis in the globally abundant Emiliania huxleyi” (Frontiers in Microbiology, 2023).

What was measured:
[1] = target: T1, E. huxleyi dihydroorotate dehydrogenase (EhDHODH); assay: DCIP colorimetric DHODH activity assay, Morrison tight-binding fit; IC50 […]; assay type: biochemical, Emiliania huxleyi
T1 construct: ΔN20EhDHODH (first 20 residues truncated, start at residue 21; N-terminal eight-residue histidine tag)

[2] = target: E. huxleyi dihydroorotate dehydrogenase (EhDHODH)

SMILES	Ki [1] [µM]	IC50 [2] [µM]
CCCCCCCc1cc(=O)c2ccccc2[nH]1 [HHQ]	0.0023 ± 0.0007	–
Cc1c(-c2ccc(-c3ccccc3F)cc2)nc2ccc(F)cc2c1C(=O)O [brequinar]	–	43 ± 11
